Marks after values point to notes of the source that are not given here.
Tests used:
[1] = system: human colon carcinoma cell line, SW-480; experiment: Growth inhibition, Sulforhodamine B (SRB) protein binding assay; type: cell-based; conditions: SW-480 cell line, six days continuous exposure
Protocol: These compounds were assayed for their growth inhibitory activity on the human colon carcinoma cell line, SW-480 obtained from ATCC (Rockville, Md.), to ascertain the degree of growth inhibition. Growth inhibition of this cell line is indicative of a benefit on precancerous lesions and neoplasms. The cell line and growth assay employed for these experiments are well characterized, and are used to evaluate the anti-neoplastic properties of NSAIDs. The assay is used by the United States National Cancer Institute in its screening program for new anti-cancer drugs.
Drug stock solutions were made in 100% DMSO then diluted with RPMI media for cell culture testing. All drug solutions were prepared fresh on the day of testing. The cultured cells were obtained at passage #99 and grown in RPMI media supplemented with 5% fetal calf serum, and 2 mM glutamine, 100 U/ml penicillin, 100 U/ml streptomycin, and 0.25 μg/ml amphotericin. The cultures were maintained in a humidified atmosphere of 95% air and 5% CO2 at 37° C. The cultures were passaged at preconfluent densities using a solution of 0.05% trypsin and 0.53 mM EDTA. Cells were plated at 1000 cells/well for 96 well flat-bottom microtiter plates.
Tumor cell growth inhibition was assessed using the Sulforhodamine B (SRB) protein binding assay. In this assay, tumor cells were plated in 96-well plates and treated with drug-containing media for six days (continuous exposure). For each plate, 6 wells were designated as no treatment controls, six wells as vehicle (0.1% DMSO) controls, and the remaining wells for drug dilutions with three wells per drug concentration. At the end of the exposure period, the cells were fixed and stained with sulforhodamine B, a protein binding dye. The dye was then solubilized, and the optical density of the resulting solution was determined on a 96-well plate reader. The mean dye intensity of the treated wells was then divided by the mean dye intensity in the control wells (6 wells of each) to determine the effect of the drug on the cells. Dye intensity is proportional to the number of cells or amount of protein per well. The resultant “percent inhibition” value then represents the degree of growth inhibition caused by the drug.
For each experiment, an IC50 value was determined and used for comparative purposes. This value is equivalent to the concentration of drug needed to inhibit tumor cell growth by 50%. IC50 values were obtained graphically by connecting the mean values for each drug concentration tested. Each experiment included at least three wells per drug concentration. Concentration was plotted on a log scale on the X-axis.

COX I = target: T1, COX I (Ovis aries, UniProt P05979); experiment: Cyclooxygenase (COX) inhibition, purified COX; type: biochemical; conditions: purified COX from ram seminal vesicles; for COX I % Inhibition (100 μM): 100 μM test compound, arachidonic acid 100 μM; for COX I % Inhibition (values marked *): values marked *: 1000 μM test compound
T1 construct: The COX was purified form ram seminal vesicles; from tissue; host or cells: ram seminal vesicles
T1 sequence (P05979 25-600): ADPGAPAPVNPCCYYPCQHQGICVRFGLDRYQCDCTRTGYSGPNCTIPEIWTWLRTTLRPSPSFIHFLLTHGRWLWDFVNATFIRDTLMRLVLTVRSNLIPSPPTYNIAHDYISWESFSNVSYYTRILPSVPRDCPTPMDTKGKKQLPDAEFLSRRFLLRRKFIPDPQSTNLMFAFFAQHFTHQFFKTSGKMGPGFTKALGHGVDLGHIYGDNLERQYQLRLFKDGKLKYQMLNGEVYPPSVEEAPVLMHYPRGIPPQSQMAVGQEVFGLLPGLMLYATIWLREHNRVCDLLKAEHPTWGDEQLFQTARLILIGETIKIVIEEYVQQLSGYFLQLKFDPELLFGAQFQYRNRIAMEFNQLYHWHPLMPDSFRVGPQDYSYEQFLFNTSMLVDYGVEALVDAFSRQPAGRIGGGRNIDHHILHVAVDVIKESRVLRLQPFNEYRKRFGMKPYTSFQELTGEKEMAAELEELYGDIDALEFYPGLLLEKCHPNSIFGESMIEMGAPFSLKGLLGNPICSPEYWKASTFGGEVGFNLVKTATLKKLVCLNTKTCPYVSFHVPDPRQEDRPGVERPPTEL
Protocol: Compounds of this invention, as well as a positive control, sulindac sulfide were to determine whether they inhibited the production of cyclooxygenase (see Table 5 below).
COX catalyzes the formation of prostaglandins and thromboxane by the oxidative metabolism of arachidonic acid. The compounds of this invention were evaluated for inhibitory effects on purified COX. The COX was purified form ram seminal vesicles, as described by Boopathy, R. and Balasubramanian, J. 239:371-377, 1988. COX activity was assayed as described by Evans, A. T., et al., “Actions of cannabis constituents on enzymes of arachidonate metabolism anti-flammatory potential,” Biochem. Pharmacol., 36:2035-2037, 1987. Briefly, purified COX was incubated with arachidonic acid (100 μM) for 2.0 min at 37° C. in the presence or absence of test compounds. The assay was terminated buy the addition of TCA, and COX activity was determined by absorbance at 530 nm.

[2] = system: HT-29 human colon carcinoma cells; experiment: Apoptosis by morphology (acridine orange/ethidium bromide, condensed chromatin); type: cell-based; conditions: HT-29 cells
Protocol: Apoptosis was measured using an assay of cell death based on morphological characteristics of apoptotic cells (i.e., condensed chromatin). Drug preparation and cell culture conditions were the same as for the SRB assay described above, except that HT-29 human colon carcinoma cells were employed/Confluent cultures were established in 12.5 cm^2 flasks by plating 0.5×10^6 cells/flask. The cultures were assayed for apoptosis by fluorescent microscopy following labeling with acridine orange and ethidium bromide. Floating and attached cells were collected by trypsinization and washed three times in PBS. One ml aliquots were centrifuged (3 g). The pellet was resuspended in 25 μl media and 1 μl of a dye mixture containing 100 μg/ml acridine orange and 100 μg/ml ethidium bromide prepared in PBS and mixed gently. Ten μl of mixture was placed on a microscope slide and covered with a 22 mm^2 coverslip and examined under 40×dry objectives using epillumination and filter combination.
An observer blinded to the identity of the treatments scored at least 100 cells per sample. Apoptotic cells were identified by nuclear condensation of chromatin stained by the acridine orange or ethidium bromide.

[3] = system: SW-480 colon adenocarcinoma cells; experiment: Apoptosis by DNA fragmentation (Cell Death Detection ELISA plus); type: cell-based, human; conditions: SW-480 cells, 48 hrs; for EC50: by software or estimated from effective concentration range; for DNA Fragmentation FS (100 μM): fold stimulation FS=ODmax/ODveh
Protocol: Apoptosis was also measured based on the amount of fragmented DNA contained in cell lysates. Briefly, SW-480 colon adenocarcinoma cells were plated in 96-well microtitre plates (“MTP”) at a density of 10K cells/well in 180 μl and incubated for 24 hrs. Cells were then treated with 20 μl aliquots of appropriately diluted compound, and allowed to incubate for an additional 48 hrs.
After the incubation, samples were prepared according to the following steps. The MTP was centrifuged (15 min., 1000 rpm) and the supernatant was carefully removed by fast inversion of the MTP. The cell pellents in each well were then resuspended in ^200 μl lysis buffer and incubated for 45 min. at room temperature to lyse the cells. The lysates were then centrifuged (15 min., 1000 rpm) and 20 μl aliquots of the supernatant (=cytoplasmic fraction) were transferred into the streptavidin coated MTP for analysis. Care was taken not to shake the lysed pellets in the MTP (=cell nucleii containing high molecular weight, unfragmented DNA). Samples were analyzed immediately, because storage at 4 C or −20 C reduces the ELISA-signals.
Samples were then processed according to a DNA fragmentation assay protocol, and dose-response curves were generated based on optical density readings. Quantification of DNA was done by a commercially available photometric enzyme-immunoassay manufactured by Mannheim-Boehringer under the name “Cell Death Detection ELISA^plus”. The assay is based on a quantitative sandwich-enzyme-immunoassay-principle using mouse monoclonal antibodies directed against DNA and histones, respectively. This allows the specific determination of mono and oligonucleosomes in the cytoplasmatic fraction of cell lysates. In brief, the assay procedure is as follows. The sample (cell-lysate, serum, culture-supernatant etc.) is placed into a streptavidin-coated MTP. Subsequently, a mixture of anti-histone-biotin and anti-DNA-POD are added and incubated for 2 hours. During the incubation period, the anti-histone antibody binds to the histone-component of the nucleosomes and simultaneously fixes the immunocomplex to the streptavidin-coated MTP via its biotinylation. Additionally, the anti-DNA-POD antibody reacts with the DNA component of the nucleosomes. After removal of unbound antibodies by a washing step, the amount of nucleosomes is quantified by the POD retained in the immunocomplex. POD is determined photometrically with ABTS® (2,2′-Azino-di[3-ethylbenzthiazolin-sulfonat])* as substrate.
Fold stimulation (FS=ODmax/ODveh), an indicator of apoptotic response, was determined for each compound tested. EC50 values were determined either specifically by data analysis software, or by estimates based on the effective concentration range of each compound (ECR=min. effective dose-min. dose to peak effect). These FS and EC50 values for the tested compounds are listed above in Table 6.

Structure (SMILES) | IC50 [1] [nM] | COX I % Inhibition (100 μM) (COX I) [%] | Morphology % Apoptotic Cells (1 μM) [2] [%] | EC50 [3] [nM] | DNA Fragmentation FS (100 μM) [3] | COX I % Inhibition (values marked *) (COX I)
COc1cc(/C=C2/C(C)=C(CC(=O)NCc3ccccc3Cl)c3cc(F)ccc32)cc(OC)c1OC [Example 4, (Z)-5-fluoro-2-methyl-1-(3,4,5-trimethoxybenzylidene)-3-(N-2-chlorobenzyl)-indenylacetamide] | 360 | <25 | 68 | 250 | 2.4 | –
COc1cc(/C=C2/C(C)=C(CC(=O)NCCCN(C)C)c3cc(F)ccc32)cc(OC)c1OC [Example 44, (Z)-5-fluoro-2-methyl-1-(3,4,5-trimethoxybenzylidene)-3-(N-3-dimethylaminopropyl)-idenylacetamide] | > 10000 | – | 25 | > 10000 | 2.7 | 51* %
COc1cc(/C=C2/C(C)=C(CC(=O)N(CCC#N)Cc3ccccc3)c3cc(F)ccc32)cc(OC)c1OC [Example 37, (Z)-5-fluoro-2-methyl-1-(3,4,5-trimethoxybenzylidene)-3-(N-benzyl-N-(2-cyanoethyl))-indenylacetamide] | > 10000 | – | <20 | > 10000 | 2.5 | 38* %
C#CCNC(=O)CC1=C(C)/C(=C/c2cc(OC)c(OC)c(OC)c2)c2ccc(F)cc21 [Example 27, (Z)-5-fluoro-2-methyl-1-(3,4,5-trimethoxybenzylidene)-3-(N-propargyl)-indenylacetamide] | 220 | <25 | 71 | 700 | 4 | –
COc1cc(/C=C2/C(C)=C(CC(=O)N[C@@H](O)Cc3ccccc3)c3cc(F)ccc32)cc(OC)c1OC [Example 46, (Z)-5-fluoro-2-methyl-1-(3,4,5-trimethoxybenzylidene)-3-(N-(S)-1-hydroxy-2-phenylethyl)-idenylacetamide] | > 10000 | – | 20 | > 10000 | 4.8 | 98* %
COc1cc(/C=C2/C(C)=C(CC(=O)NCc3ccccc3Br)c3cc(F)ccc32)cc(OC)c1OC [Example 33, (Z)-5-fluoro-2-methyl-1-(3,4,5-trimethoxybenzylidene)-3-(N-2-bromobenzyl)-indenylacetamide] | 1800 | – | 28 | 4000 | 3.7 | 49* %
COc1cc(/C=C2/C(C)=C(CC(=O)NCc3cc(F)ccc3F)c3cc(F)ccc32)cc(OC)c1OC [Example 8, (Z)-5-fluoro-2-methyl-1-(3,4,5-trimethoxybenzylidene)-3-(N-2,5-difluorobenzyl)-indenylacetamide] | 120 | <25 | 48 | 210 | <2 | –
COc1cc(/C=C2/C(C)=C(CC(=O)NCc3ccccc3N)c3cc(F)ccc32)cc(OC)c1OC [Example 34, (Z)-5-fluoro-2-methyl-1-(3,4,5-trimethoxybenzylidene)-3-(N-2-aminobenzyl)-indenylacetamide] | 6200 | – | 45 | > 10000 | 2.1 | 31* %
COc1cc(/C=C2/C(C)=C(CC(=O)NCCCCc3ccccc3)c3cc(F)ccc32)cc(OC)c1OC [Example 41, (Z)-5-fluoro-2-methyl-1-(3,4,5-trimethoxybenzylidene)-3-(N-4-phenylbutyl)-indenylacetamide] | > 10000 | – | 30 | > 10000 | <2 | 59* %
COc1ccc(/C=C2/C(C)=C(CC(=O)NCc3ccccc3)c3cc(F)ccc32)c(OC)c1OC [Example 57, (Z)-5-fluoro-2-methyl-1-(2,3,4-trimethoxybenzylidene)-3-(N-benzyl)-indenylacetamide] | 260 | <25 | 73 | 300 | <2 | –

From US6403831B1, “Substituted benzylidene indenyl formamides, acetamides and propionamides” (Cell Pathways, Inc., priority 1996, dated 2002)
